Results as given in the supplement of paper PMC10307832.

Key:
Test in all cases: relative viability (nuclei count vs DMSO), 5 days (fraction); higher = more cells survive
OSI-027 + Phenformin = compound: COc1cccc2cc(-c3nc([C@H]4CC[C@H](C(=O)O)CC4)n4ncnc(N)c34)[nH]c12 [OSI-027] + N=C(N)NC(=N)NCCc1ccccc1 [Phenformin] (partner 250 µM)
In short: (§1)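 Lung cancer cell lines in 1536-well plates got either a single drug or a fixed anchor-drug dose together with five library-drug doses (not always all listed) in √10 steps, by pin tool, on the day after seeding. Nuclei were counted after 5 days, and relative viability is the treated-to-vehicle ratio of nuclei counts. Values are medians of duplicate plates.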

Vemurafenib + Lapatinib = compound: CCCS(=O)(=O)Nc1ccc(F)c(C(=O)c2c[nH]c3ncc(-c4ccc(Cl)cc4)cc23)c1F [Vemurafenib] + CS(=O)(=O)CCNCc1ccc(-c2ccc3ncnc(Nc4ccc(OCc5cccc(F)c5)c(Cl)c4)c3c2)o1 [Lapatinib] (partner 2 µM)
In short: as §1

OSI-027 + Decitabine = compound: COc1cccc2cc(-c3nc([C@H]4CC[C@H](C(=O)O)CC4)n4ncnc(N)c34)[nH]c12 [OSI-027] + Nc1ncn([C@H]2C[C@H](O)[C@@H](CO)O2)c(=O)n1 [Decitabine] (partner 2 µM)
In short: as §1

OSI-027 + Vorinostat = compound: COc1cccc2cc(-c3nc([C@H]4CC[C@H](C(=O)O)CC4)n4ncnc(N)c34)[nH]c12 [OSI-027] + O=C(CCCCCCC(=O)Nc1ccccc1)NO [Vorinostat] (partner 1 µM)
In short: as §1

Row | Cell Line | relative viability (OSI-027 + Phenformin; first compound 0.01 µM) | relative viability (OSI-027 + Phenformin; first compound 0.03162 µM) | relative viability (OSI-027 + Phenformin; first compound 0.1 µM) | relative viability (OSI-027 + Phenformin; first compound 0.3162 µM) | relative viability (OSI-027 + Phenformin; first compound 1 µM) | relative viability (Vemurafenib + Lapatinib; first compound 0.03162 µM) | relative viability (Vemurafenib + Lapatinib; first compound 0.1 µM) | relative viability (Vemurafenib + Lapatinib; first compound 1 µM) | relative viability (OSI-027 + Decitabine; first compound 0.01 µM) | relative viability (OSI-027 + Decitabine; first compound 0.03162 µM) | relative viability (OSI-027 + Decitabine; first compound 0.1 µM) | relative viability (OSI-027 + Decitabine; first compound 0.3162 µM) | relative viability (OSI-027 + Decitabine; first compound 1 µM) | relative viability (OSI-027 + Vorinostat; first compound 0.01 µM) | relative viability (OSI-027 + Vorinostat; first compound 0.03162 µM) | relative viability (OSI-027 + Vorinostat; first compound 0.1 µM) | relative viability (OSI-027 + Vorinostat; first compound 0.3162 µM) | relative viability (OSI-027 + Vorinostat; first compound 1 µM) | relative viability (Vemurafenib + Lapatinib; first compound 0.3162 µM)
1 | HCC-366 | 0.598 | 0.649 | 0.637 | 0.659 | 0.498 | 1.09 | 1.07 | 1.05 | 0.345 | 0.367 | 0.381 | 0.265 | 0.228 | 0.404 | 0.367 | 0.325 | 0.314 | 0.194 | 
2 | HCC-827 | 0.358 | 0.423 | 0.408 | 0.4 | 0.328 | 0.209 |  | 0.191 | 0.304 | 0.291 | 0.3 | 0.329 | 0.277 | 0.61 | 0.851 | 0.768 | 0.852 | 0.475 | 0.22
3 | HOP-62 | 0.648 | 0.565 | 0.716 | 0.77 | 0.388 | 0.915 | 1.14 | 0.796 | 0.216 | 0.231 | 0.252 | 0.257 | 0.214 | 0.586 | 0.662 | 0.53 | 0.546 | 0.296 | 0.906
4 | IA-LM |  |  |  |  |  | 0.764 | 0.715 | 0.608 |  |  |  |  |  | 0.997 | 0.388 | 0.652 | 0.479 | 0.15 | 0.684
5 | LC-2-ad | 0.566 | 0.647 | 0.51 | 0.509 | 0.449 | 0.881 | 0.928 | 0.866 | 0.827 | 0.842 | 0.779 | 0.735 | 0.578 | 0.718 | 0.703 | 0.758 | 0.854 | 0.549 | 0.778
6 | LCLC-97TM1 | 0.477 | 0.459 | 0.332 | 0.246 | 0.306 | 0.825 | 0.981 | 0.696 | 0.256 | 0.23 | 0.195 | 0.174 | 0.22 | 0.816 | 0.642 | 0.699 | 0.503 | 0.345 | 1.63
7 | LCLC-103H | 0.348 | 0.337 | 0.36 | 0.284 | 0.272 |  |  |  | 0.748 | 0.732 | 0.707 | 0.598 | 0.783 | 0.781 | 0.64 | 0.747 | 0.704 | 0.613 | 
8 | LK-2 | 0.437 | 0.344 | 0.328 | 0.155 | 0.275 | 0.674 | 0.867 | 0.505 | 0.207 | 0.251 | 0.231 | 0.234 | 0.142 | 0.272 | 0.296 | 0.244 | 0.176 | 0.179 | 0.835
9 | LOU-NH91 | 0.699 | 0.679 | 0.504 | 0.548 | 0.411 | 0.683 | 0.78 | 0.781 | 0.804 | 0.825 | 0.73 | 0.718 | 0.613 | 0.858 | 0.913 | 0.69 | 0.712 | 0.479 | 
10 | LU99A | 0.777 | 0.844 | 0.869 | 0.593 | 0.292 | 0.878 | 0.985 | 0.916 | 0.773 | 0.966 | 0.675 | 0.485 | 0.216 | 0.491 | 0.667 | 0.396 | 0.304 | 0.232 | 1.03
11 | LXF-289 | 0.525 | 0.518 | 0.543 | 0.484 | 0.398 | 0.892 | 0.883 | 0.965 | 0.378 | 0.355 | 0.379 | 0.367 | 0.349 | 0.767 | 0.836 | 0.827 | 0.902 | 0.787 | 0.87
12 | NCI-H23 | 0.824 | 0.767 | 0.808 | 0.669 | 0.533 | 0.87 | 1.16 | 1.36 | 0.296 | 0.336 | 0.305 | 0.278 | 0.268 | 0.58 | 0.232 | 0.406 | 0.398 | 0.303 | 0.749
13 | NCI-H441 | 0.895 | 0.879 | 0.841 | 0.55 | 0.474 |  |  |  | 0.266 | 0.263 | 0.261 | 0.293 | 0.259 | 0.837 | 0.77 | 0.757 | 0.741 | 0.431 | 
14 | NCI-H522 | 0.72 | 0.57 | 0.583 | 0.506 | 0.508 |  |  |  | 0.705 | 0.724 | 0.626 | 0.629 | 0.582 | 0.768 | 1.02 | 0.883 | 0.686 | 0.638 | 
15 | NCI-H1299 |  |  |  |  |  | 0.965 | 0.93 | 0.952 |  |  |  |  |  |  |  |  |  |  | 0.885
16 | NCI-H1563 | 0.674 | 0.647 | 0.618 | 0.681 | 0.589 | 0.842 | 0.886 | 0.961 |  |  |  |  |  |  |  |  |  |  | 0.84
17 | NCI-H1623 | 0.583 | 0.603 | 0.485 | 0.424 | 0.32 |  |  |  |  |  |  |  |  |  |  |  |  |  | 
18 | NCI-H1648 |  |  |  |  |  |  |  |  | 0.477 | 0.51 |  | 0.445 | 0.45 | 0.369 | 0.323 |  | 0.477 | 0.236 | 
19 | NCI-H1703 |  |  |  |  |  | 1.19 | 0.916 | 0.987 |  |  |  |  |  |  |  |  |  |  | 0.924
20 | NCI-H1792 | 0.126 | 0.168 | 0.228 | 0.204 | 0.173 | 0.819 | 0.886 | 0.959 | 0.587 | 0.434 | 0.56 | 0.499 | 0.135 |  |  |  |  |  | 0.651
21 | NCI-H2228 | 0.305 | 0.324 | 0.307 | 0.251 | 0.198 | 1.11 | 1.09 | 1.06 |  |  |  |  |  | 0.509 | 0.511 | 0.528 | 0.564 | 0.45 | 1.21
22 | NCI-H2342 | 0.524 | 0.533 | 0.564 | 0.481 | 0.445 |  |  |  | 0.793 | 0.687 | 0.68 | 0.662 | 0.603 | 0.715 | 0.611 | 0.683 | 0.768 | 0.547 | 
23 | SW 900 |  | 0.45 | 0.633 | 0.474 | 0.347 |  |  |  | 0.438 | 0.402 | 0.42 | 0.48 | 0.384 | 0.545 | 0.592 | 0.386 | 0.421 | 0.206 | 
